Data published in the NIST ThermoML archive (doi:10.1021/je900216m).
± gives the expanded uncertainty stated by the source.

Test: osmotic coefficient (dimensionless); mn = molality of the nth substance listed, in mol/kg
Settings: Liquid, isopiestic method

CCCC[N+](CC)(CC)CC.[Br-] [butyltriethyl ammonium bromide] + O
osmotic coefficient (283.15 K, m1 = 0.1033): 0.9271 ± 0.0029 | osmotic coefficient (283.15 K, m1 = 0.1376): 0.9231 ± 0.0031 | osmotic coefficient (283.15 K, m1 = 0.2187): 0.9188 ± 0.0033 | osmotic coefficient (283.15 K, m1 = 0.2974): 0.9175 ± 0.0034 | osmotic coefficient (283.15 K, m1 = 0.3319): 0.9169 ± 0.0035 | osmotic coefficient (283.15 K, m1 = 0.4688): 0.92 ± 0.0034 | osmotic coefficient (283.15 K, m1 = 0.555): 0.9241 ± 0.0034 | osmotic coefficient (283.15 K, m1 = 0.679): 0.9288 ± 0.0033 | osmotic coefficient (283.15 K, m1 = 0.78): 0.934 ± 0.0032 | osmotic coefficient (283.15 K, m1 = 0.8485): 0.9393 ± 0.0031 | osmotic coefficient (283.15 K, m1 = 0.9497): 0.9464 ± 0.0029 | osmotic coefficient (288.15 K, m1 = 0.1039): 0.9158 ± 0.0033 | osmotic coefficient (288.15 K, m1 = 0.1569): 0.904 ± 0.0038 | osmotic coefficient (288.15 K, m1 = 0.2793): 0.8916 ± 0.0043 | osmotic coefficient (288.15 K, m1 = 0.3789): 0.8853 ± 0.0046 | osmotic coefficient (288.15 K, m1 = 0.4818): 0.884 ± 0.0047 | osmotic coefficient (288.15 K, m1 = 0.6069): 0.8837 ± 0.0048 | osmotic coefficient (288.15 K, m1 = 0.6983): 0.8853 ± 0.0048 | osmotic coefficient (288.15 K, m1 = 0.8052): 0.8899 ± 0.0046 | osmotic coefficient (288.15 K, m1 = 0.8847): 0.8929 ± 0.0046 | osmotic coefficient (288.15 K, m1 = 1.028): 0.8989 ± 0.0044

CCCC[N+](CC)(CC)CCCC.[Br-] [dibutyldiethylammonium bromdie] + O
osmotic coefficient (283.15 K, m1 = 0.1034): 0.9261 ± 0.0029 | osmotic coefficient (283.15 K, m1 = 0.1376): 0.9232 ± 0.003 | osmotic coefficient (283.15 K, m1 = 0.2189): 0.9178 ± 0.0033 | osmotic coefficient (283.15 K, m1 = 0.2978): 0.9163 ± 0.0033 | osmotic coefficient (283.15 K, m1 = 0.3324): 0.9156 ± 0.0034 | osmotic coefficient (283.15 K, m1 = 0.4702): 0.9172 ± 0.0033 | osmotic coefficient (283.15 K, m1 = 0.5576): 0.9198 ± 0.0033 | osmotic coefficient (283.15 K, m1 = 0.6825): 0.924 ± 0.0032 | osmotic coefficient (283.15 K, m1 = 0.7842): 0.9289 ± 0.003 | osmotic coefficient (283.15 K, m1 = 0.8544): 0.9328 ± 0.0029 | osmotic coefficient (283.15 K, m1 = 0.9569): 0.9393 ± 0.0026 | osmotic coefficient (288.15 K, m1 = 0.1041): 0.9139 ± 0.0034 | osmotic coefficient (288.15 K, m1 = 0.1562): 0.908 ± 0.0036 | osmotic coefficient (288.15 K, m1 = 0.2772): 0.8982 ± 0.004 | osmotic coefficient (288.15 K, m1 = 0.3749): 0.8947 ± 0.0041 | osmotic coefficient (288.15 K, m1 = 0.4763): 0.8941 ± 0.0042 | osmotic coefficient (288.15 K, m1 = 0.6002): 0.8934 ± 0.0043 | osmotic coefficient (288.15 K, m1 = 0.6897): 0.8963 ± 0.0042 | osmotic coefficient (288.15 K, m1 = 0.7971): 0.8989 ± 0.0041 | osmotic coefficient (288.15 K, m1 = 0.8741): 0.9038 ± 0.0039 | osmotic coefficient (288.15 K, m1 = 1.012): 0.9132 ± 0.0036

CC(C)C[N+](CC(C)C)(CC(C)C)CC(C)C.[Br-] [tetra-iso-butyl ammonium bromide] + O
osmotic coefficient (283.15 K, m1 = 0.1035): 0.9253 ± 0.0029 | osmotic coefficient (283.15 K, m1 = 0.1376): 0.9231 ± 0.0031 | osmotic coefficient (283.15 K, m1 = 0.2192): 0.9167 ± 0.0034 | osmotic coefficient (283.15 K, m1 = 0.2986): 0.9138 ± 0.0035 | osmotic coefficient (283.15 K, m1 = 0.3332): 0.9133 ± 0.0036 | osmotic coefficient (283.15 K, m1 = 0.4724): 0.9129 ± 0.0037 | osmotic coefficient (283.15 K, m1 = 0.5608): 0.9146 ± 0.0037 | osmotic coefficient (283.15 K, m1 = 0.6871): 0.9179 ± 0.0037 | osmotic coefficient (283.15 K, m1 = 0.7904): 0.9217 ± 0.0036 | osmotic coefficient (283.15 K, m1 = 0.8617): 0.9249 ± 0.0035 | osmotic coefficient (283.15 K, m1 = 0.9658): 0.9307 ± 0.0034 | osmotic coefficient (288.15 K, m1 = 0.1041): 0.9142 ± 0.0034 | osmotic coefficient (288.15 K, m1 = 0.1569): 0.9038 ± 0.0038 | osmotic coefficient (288.15 K, m1 = 0.2795): 0.8908 ± 0.0043 | osmotic coefficient (288.15 K, m1 = 0.3804): 0.8818 ± 0.0047 | osmotic coefficient (288.15 K, m1 = 0.4856): 0.877 ± 0.005 | osmotic coefficient (288.15 K, m1 = 0.6127): 0.8752 ± 0.0051 | osmotic coefficient (288.15 K, m1 = 0.7082): 0.8728 ± 0.0052 | osmotic coefficient (288.15 K, m1 = 0.8192): 0.8747 ± 0.0052 | osmotic coefficient (288.15 K, m1 = 0.9012): 0.8766 ± 0.0052 | osmotic coefficient (288.15 K, m1 = 1.05): 0.8804 ± 0.0051

CCC(C)[N+](C(C)CC)(C(C)CC)C(C)CC.[Br-] (stereo not given) [tetra-sec-butyl ammonium bromide] + O
osmotic coefficient (283.15 K, m1 = 0.1033): 0.927 ± 0.0029 | osmotic coefficient (283.15 K, m1 = 0.1377): 0.9222 ± 0.0031 | osmotic coefficient (283.15 K, m1 = 0.2195): 0.9154 ± 0.0035 | osmotic coefficient (283.15 K, m1 = 0.2991): 0.9123 ± 0.0036 | osmotic coefficient (283.15 K, m1 = 0.3339): 0.9114 ± 0.0037 | osmotic coefficient (283.15 K, m1 = 0.4732): 0.9114 ± 0.0039 | osmotic coefficient (283.15 K, m1 = 0.5619): 0.9128 ± 0.0039 | osmotic coefficient (283.15 K, m1 = 0.6887): 0.9157 ± 0.0039 | osmotic coefficient (283.15 K, m1 = 0.7927): 0.919 ± 0.0039 | osmotic coefficient (283.15 K, m1 = 0.8651): 0.9213 ± 0.0038 | osmotic coefficient (283.15 K, m1 = 0.9705): 0.9261 ± 0.0037 | osmotic coefficient (288.15 K, m1 = 0.1042): 0.913 ± 0.0034 | osmotic coefficient (288.15 K, m1 = 0.1572): 0.9021 ± 0.0039 | osmotic coefficient (288.15 K, m1 = 0.2811): 0.8859 ± 0.0046 | osmotic coefficient (288.15 K, m1 = 0.3824): 0.8772 ± 0.0049 | osmotic coefficient (288.15 K, m1 = 0.4912): 0.867 ± 0.0054 | osmotic coefficient (288.15 K, m1 = 0.6212): 0.8632 ± 0.0056 | osmotic coefficient (288.15 K, m1 = 0.7168): 0.8624 ± 0.0057 | osmotic coefficient (288.15 K, m1 = 0.8295): 0.8638 ± 0.0057 | osmotic coefficient (288.15 K, m1 = 0.9119): 0.8663 ± 0.0056 | osmotic coefficient (288.15 K, m1 = 1.06): 0.8713 ± 0.0055

CCCC[N+](CCCC)(CCCC)CCCC.[Br-] [tetrabutylammonium bromide] + O
osmotic coefficient (283.15 K, m1 = 0.1035): 0.9257 ± 0.003 | osmotic coefficient (283.15 K, m1 = 0.138): 0.9204 ± 0.0032 | osmotic coefficient (283.15 K, m1 = 0.2197): 0.9146 ± 0.0034 | osmotic coefficient (283.15 K, m1 = 0.2995): 0.9111 ± 0.0037 | osmotic coefficient (283.15 K, m1 = 0.3343): 0.9104 ± 0.0037 | osmotic coefficient (283.15 K, m1 = 0.4739): 0.9101 ± 0.004 | osmotic coefficient (283.15 K, m1 = 0.5629): 0.9111 ± 0.0042 | osmotic coefficient (283.15 K, m1 = 0.6903): 0.9136 ± 0.0042 | osmotic coefficient (283.15 K, m1 = 0.7953): 0.916 ± 0.0042 | osmotic coefficient (283.15 K, m1 = 0.8682): 0.918 ± 0.0042 | osmotic coefficient (283.15 K, m1 = 0.9751): 0.9217 ± 0.0041 | osmotic coefficient (288.15 K, m1 = 0.1045): 0.9107 ± 0.0035 | osmotic coefficient (288.15 K, m1 = 0.1582): 0.8964 ± 0.0041 | osmotic coefficient (288.15 K, m1 = 0.2837): 0.8776 ± 0.0049 | osmotic coefficient (288.15 K, m1 = 0.3864): 0.8681 ± 0.0053 | osmotic coefficient (288.15 K, m1 = 0.4954): 0.8596 ± 0.0058 | osmotic coefficient (288.15 K, m1 = 0.628): 0.8539 ± 0.0062 | osmotic coefficient (288.15 K, m1 = 0.7262): 0.8512 ± 0.0063 | osmotic coefficient (288.15 K, m1 = 0.8429): 0.8501 ± 0.0064 | osmotic coefficient (288.15 K, m1 = 0.9276): 0.8517 ± 0.0064 | osmotic coefficient (288.15 K, m1 = 1.079): 0.8566 ± 0.0062
